Read-outs that look alike come from different tables or passages of the source.
Key:
Format in all cases: cell-based
[1] = biological target: Ba/F3-FL-EGFR-A763-Y764 ins FQEA (Homo sapiens, UniProt P00533, INS763FQEA, cells depend on it); experiment: Cell proliferation inhibitory activity test (CellTiter-Glo), EGFR exon 20 insertion mutation; details: 72 h, read-out: Ba/F3-FL-EGFR IC50 (nM) A763-Y764ins FQEA
PC9 (EGFRdel19) cells = experiment: Cell proliferation inhibitory activity test (WST-8) of related EGFR mutations
[2] = biological target: T1, Ba/F3-FL-EGFR-V769-D770 ins ASV (Homo sapiens, UniProt P00533, cells depend on it, form not given); experiment: Cell proliferation inhibitory activity test (CellTiter-Glo), EGFR exon 20 insertion mutation; details: Ba/F3-FL-EGFR exon 20 insertion lines, see Table 6
T1 construct: rows headed: activity relative to the activity of TAK-788; Ba/F3-FL-EGFR

[3] = biological target: T2, Ba/F3-FL-EGFR-V769-D770 ins ASV (Homo sapiens, UniProt P00533, DUP767-769, cells depend on it); experiment: as above; details: 72 h, read-out: Ba/F3-FL-EGFR IC50 (nM) V769-D770ins ASV
T2 construct: Ba/F3-FL-EGFR IC50 (nM) V769-D770ins ASV; other: 72 h; class symbols; Ba/F3-FL-EGFR IC50 (nM) V769-D770ins ASV

[4] = system: H-1975 (EGFRL858R/T790M) cells; experiment: Cell proliferation inhibitory activity test (WST-8) of related EGFR mutations
[5] = biological target: Ba/F3-FL-EGFR-H773-V774 ins NPH (Homo sapiens, UniProt P00533, DUP771-773, cells depend on it); experiment: Cell proliferation inhibitory activity test (CellTiter-Glo), EGFR exon 20 insertion mutation; details: 72 h, read-out: Ba/F3-FL-EGFR IC50 (nM) H773-V774ins NPH
[6] = biological target: Ba/F3-FL-EGFR-D77-N771 ins SVD (Homo sapiens, UniProt P00533, DUP768-770, cells depend on it); experiment: as above; details: 72 h, read-out: Ba/F3-FL-EGFR IC50 (nM) D77-N771ins SVD
[7] = biological target: Ba/F3 (EGFRdel19/L858R/C797S) (Homo sapiens, UniProt P00533, C797S/L858R, cells depend on it, form not given); experiment: Cell proliferation inhibitory activity test (WST-8) of related EGFR mutations; details: 72 h, cell viability; read-out: IC 50 (nM) Ba/F3 (EGFRdel19/L858/797s)

GI50 ([1]; class symbols): < 5 nM
GI50 [1]: 1.8 nM
IC50 (PC9 (EGFRdel19) cells; 72 h, cell viability, read-out: IC 50 (nM) PC-9 (EGFRdel19)): 6.61 nM
activity relative to the activity of TAK-788 [2]: around 2 times
GI50 ([3]; class symbols): < 5 nM
GI50 [3]: 1.9 nM
GI50 ([5]; class symbols): < 5 nM
GI50 [5]: 2.8 nM
GI50 ([6]; class symbols): < 5 nM
GI50 [6]: 2.8 nM
SMILES: C=CC(=O)Nc1cc(Nc2ncc(-c3nnc(C)o3)c(-c3cn(C)c4ccccc34)n2)c(OC)cc1N(C)C1[C@H]2CN(C)C[C@@H]12 (some centres unmarked) [Example 18]
cytostatic activity compared with osimertinib and TAK788 (PC9 (EGFRdel19) cells; C-9 (EGFRdel19)): not much different from osimertinib activity
cytostatic activity compared with osimertinib and TAK788 ([4]; H-1975 (EGFRL858/T790M)): not much different from osimertinib activity
IC50 ([4]; Homo sapiens, NCI-H1975, 72 h, cell viability, read-out: IC 50 (nM) H-1975 (EGFRL858/T790M)): 91.2 nM
GI50 [7]: 3980 nM

Source: patent US12509441B2, “Compounds used as kinase inhibitors and application thereof” (TYK MEDICINES (ZHENGZHOU), INC., priority 2020, dated 2025)
